Values joined by “and” are separate entries in the source; they are usually repeats but may differ in a detail not shown here. Identical values can stand only once. Like-named read-outs stand apart in the source and are kept apart here.
Key:
[1] = from Kortylewicz, et al. (2020) J Med Chem; cited from earlier work
[2] = from Kortylewicz, et al. (2020) J Med Chem; cited from earlier work; remark: listed apart in the source
[3] = target: T1, norepinephrine transporter (Homo sapiens, UniProt P23975); test: Competitive uptake assay with nonradioactive MIBG in SK-N-SH cells; assay type: cell-based; conditions: 50 μM nonradioactive MIBG; 25.8±0.7 kBq/ml GPAID; exponentially growing SK cell monolayers
T1 construct: These cells represent a well-established robust model for the NET-specific MIBG uptake; endogenous in cells; host or cells: SK (SK-N-SH) and BE (BE(2)-C) neuroblastoma cells, exponentially growing monolayers
T1 sequence (P23975 whole entry): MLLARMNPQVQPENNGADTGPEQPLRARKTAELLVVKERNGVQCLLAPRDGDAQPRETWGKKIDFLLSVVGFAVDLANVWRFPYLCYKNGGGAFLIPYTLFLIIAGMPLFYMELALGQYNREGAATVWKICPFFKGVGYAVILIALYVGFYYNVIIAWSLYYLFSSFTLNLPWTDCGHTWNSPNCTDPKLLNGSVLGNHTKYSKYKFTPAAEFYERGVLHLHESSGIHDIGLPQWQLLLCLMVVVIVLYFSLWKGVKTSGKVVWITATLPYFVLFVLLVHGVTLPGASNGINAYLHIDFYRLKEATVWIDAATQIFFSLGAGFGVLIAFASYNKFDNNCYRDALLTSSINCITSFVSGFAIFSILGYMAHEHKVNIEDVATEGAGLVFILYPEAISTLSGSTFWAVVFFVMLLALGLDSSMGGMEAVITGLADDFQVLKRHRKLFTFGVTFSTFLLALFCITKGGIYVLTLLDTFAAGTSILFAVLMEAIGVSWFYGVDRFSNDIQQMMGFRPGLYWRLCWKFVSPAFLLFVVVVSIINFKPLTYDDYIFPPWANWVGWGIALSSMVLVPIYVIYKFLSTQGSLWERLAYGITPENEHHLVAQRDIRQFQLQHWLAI
Method: (§1) Cells were plated into T25 flasks and allowed to grow until ˜60%-70% confluent. Fresh medium (3 ml) was added to one set of flasks (n=4 per time). To the second set of flasks (n=4 per time), fresh medium (3 ml) containing 100-μM nonradioactive MIBG was added. All cells were returned to the incubator for 30 minutes, after which time 3 ml of medium containing GPAID (51.5±1.4 kBq/ml) was added to produce the final concentration of 50-μM MIBG and 25.8±0.7 kBq/ml GPAID. Cells were returned to the incubator for additional 1, 24, and 48 hours. At designated times, media were removed, monolayer washed 1× with full medium, 2× with PBS, and SK and BE cells were harvested with the nonenzymatic cell dissociation solution (Sigma-Aldrich). N1E cells were harvested by flushing the monolayer with spent media. Cell numbers were determined, and their radioactive content measured in a gamma counter. The whole cell uptake was calculated on terms of MBq per cells. The clonogenic survival was calculated as the ratio of the number of colonies produced by cells treated with nonradioactive MIBG and GPAID to the number of colonies produced by cells treated with GPAID only. The cell survival at 24 hours was expressed as the ratio of viable cells in treatment groups to cells in untreated controls.

[4] = target: T1, norepinephrine transporter; test: Competitive uptake assay with nonradioactive MIBG in BE(2)-C cells; assay type: cell-based; conditions: 50 μM nonradioactive MIBG; 25.8±0.7 kBq/ml GPAID; exponentially growing BE cell monolayers
Method: as §1

[5] = tested on: BE(2)-C cells; test: Clonogenic survival of BE(2)-C cells; assay type: cell-based, human; conditions: on average
Method: as §1

[6] = target: NET (Homo sapiens, UniProt P23975); conditions: Smets, et al. (1989) Cancer Res.; cited from earlier work
Sequence of NET (P23975 whole entry): as above

[7] = tested on: N1E-115 cells; test: Subcellular distribution in N1E-115 cells; assay type: cell-based, murine
Excerpt: (§2) Two human NB cell lines SK-N-SH (SK) and BE(2)-C(BE) and one murine NB cell line N1E-115 (N1E) were purchased from the American Type Culture Collection (ATCC; Manassas, VA). Cells were maintained according to the vendor's instructions. For animal studies, cells were harvested when ˜70% confluent and cryopreserved until ready to use.
(§3) Established protocols were used in these experiment (Kortylewicz, et al. (2020) J Med Chem., 63:2051-2073; Baranowska-Kortylewicz, et al. (1994) J Label Compd Radiopharm., 34(6):513-521; Kortylewicz, et al. (2009) J Med Chem., 52(16):5124-5143). Briefly, NB cells plated in TPP T25 flasks (Midwest Scientific, Valley Park, MO) at 5×10^5 cells per flask were maintained in culture for 48-72 hours, depending on the doubling time of the cell line, until 60%-70% confluent. For time-dependent uptake studies, GPAID was added to the growth medium to produce the average concentrations of 28.2±5.5, 27.6±2.8, and 30.7±1.0 kBq/ml in SK, BE, and N1E cells, respectively. Radioactive medium was removed after 1, 5, 16, 24, and 48 hours in culture (n=4 per time). Cells were harvested by scraping and enumerated using Cellometer (Nexcelom Bioscience, Lawrence, MA). Cell suspensions were centrifuged for 10 minutes at 1500 rpm; cell pellets resuspended in ice-cold PBS, transferred into microfuge tubes, and centrifuged at 500×g for 10 minutes. The radioactive content of cell pellets was measured in a gamma counter. The cellular uptake was calculated in terms of MBq per cell. For subcellular fractionation experiments, NB cells grown as monolayers were treated with GPAID and processed as described (Kortylewicz, et al. (2020) J Med Chem., 63:2051-2073). In the concentration-dependent uptake experiments, GPAID in the appropriate medium at several concentrations was added to the cell monolayers. Cells were processed after 1-hour incubation. Radioactive medium was removed, and monolayers were washed once with full nonradioactive medium and PBS. Cells were harvested and enumerated, and their radioactive content was measured.

[8] = Ex vivo stability in human serum; assay type: in vitro ADME; conditions: 37° C., 5% CO2; average±SE; monoexponential fit of percent intact compound
Method: (§4) Aliquots of GPAID (1.4-2.3 MBq) in 120 μl of 25% EtOH/PB (10-mM, pH 6.1) were added to 6.88-ml phosphate-buffered saline (PBS), cell culture media, or serum (mouse, pig, or human). Mixtures were briefly vortexed and incubated at 37° C. and 5% CO2. At selected times, 1 ml of GPAID incubation mixture was withdrawn, 1-ml MeCN was added, and the mixture was vortexed and centrifuged at 2000 rpm for 15 minutes at 4° C. The supernatant was removed, and the radioactivity measured. Supernatant (250-500 μl) were acidified to pH˜6 with 0.05-N TFA (2-8 μl). The excess of MeCN was evaporated with a stream of nitrogen and 100 μl of water added. This mixture was passed through a 0.22-μm filter and 100 μl (111-185 kBq) injected onto the HPLC system. HPLC analysis of extracts proceeded on the ACE C18 100-A column ([…], 4.6×250 mm) eluted at 0.8 ml/minute with a linear gradient of MeCN from 10% to 95% over 45 minutes and kept at 95% MeCN for 15 minutes the radioactivity detection (Bioscan). Both solvents contained 0.07% TFA (v/v).
(§5) Ex vivo stability of GPAID was assessed in PBS, cell culture medium without NB cells, and in the presence of NB cells and in human, mouse, and porcine sera after various times of incubation. […] Half-lives in sera were calculated from the area under the peak of the intact GPAID recovered from the incubation mixtures plotted as a function of the incubation time. […]

[9] = Ex vivo stability in pig serum; assay type: in vitro ADME; conditions: 37° C., 5% CO2; average±SE; monoexponential fit of percent intact compound
Method: as §4, §5

[10] = Ex vivo stability in mouse serum; assay type: in vitro ADME; conditions: mouse serum contains esterases including carboxylesterase
Method: as §4, §5

[11] = Stability in PBS; assay type: physicochemical; conditions: 37° C.
Method: as §4, §5

[12] = Stability in cell culture medium without NB cells; assay type: physicochemical; conditions: 5% CO2
Method: as §4, §5

[13] = tested on: SK-N-SH cells; test: Radioactive species in medium recovered from NB cell monolayers cultured with GPAID; assay type: cell-based, human
Method: as §4
Ex vivo stability of GPAID was assessed in PBS, cell culture medium without NB cells, and in the presence of NB cells and in human, mouse, and porcine sera after various times of incubation. The analytical details are provided hereinabove. Half-lives in sera were calculated from the area under the peak of the intact GPAID recovered from the incubation mixtures plotted as a function of the incubation time. The degradation curves followed the first-order kinetics. Data were fitted into the monoexponential equations with the intercept set at 100% (FIG. 2A). In a typical experiment, a final concentration of GPAID in serum approximated radioactivity levels of ^131IMIBG in blood of children receiving therapeutic doses (Pandit-Taskar, et al. (2017) Clin Nucl Med., 42(10):741-748; Matthay, et al. (1998) J Clin Oncol., 16(1):229-236). 0

[14] = tested on: BE(2)-C and SK-N-SH cells; test: Time- and concentration-dependent cellular uptake, statements covering both NB cell lines; assay type: cell-based, human
Excerpt: as §2, §3

[15] = tested on: BE(2)-C cells; test: Subcellular distribution in BE(2)-C cells; assay type: cell-based, human
Excerpt: as §2, §3

[16] = tested on: SK-N-SH cells; test: Subcellular distribution in SK-N-SH cells; assay type: cell-based, human
Excerpt: as §2, §3

[17] = tested on: NB cells; test: Survival of NB cells, trypan blue exclusion method followed by clonogenic assay; assay type: cell-based, human; conditions: trypan blue exclusion and clonogenic assay; 25.8±0.7 kBq/ml
Method: as §1

[18] = tested on: N1E-115 tumors; test: Therapy of mice bearing IP N1E allografts; assay type: in vivo; conditions: single IP dose 3.64±0.10 MBq per mouse 1 week after implant; 14 days after treatment; NT controls 2.61±0.57 g; p=0.03
Method: Research involving animals was performed in accordance with the UNMC institutional guidelines and protocols as defined by the Institutional Animal Care and Use Committee for US institutions. Athymic NCr nude mice (spontaneous mutant) were purchased from Taconic (Rensselaer, NY). The intraperitoneal route […] was used for the tumor implant and dose administration. All experiments were conducted in mice of both genders 4 to 8 weeks old.
Four-week-old NCr nu/nu mice, male (n=10) and female (n=10), received IP implant of 5×10^6 N1E cells. One week later, mice were randomly assigned via a lottery to either control or treatment group. Control mice were given IP injection of the vehicle. Mice in the therapy group received a bolus IP injection of 3.64±0.10 MBq GPAID per mouse (˜145 MBq/kg body weight [bw]). Triplicate aliquots of the injected dose (ID) were counted in a gamma counter. Syringes containing the dose and syringes after the injection were weighed on the analytical balance to determine ID. Whole body radioactivity was also measured immediately after each injection to confirm ID. Necropsy was performed at the termination of the experiment. Blood was collected via cardiac puncture. […]
All variables are expressed as average±standard deviation or ±standard error. The cellular uptake, cell survival, and other biological properties were analyzed using two-sided Student's t test. […]

[19] = Hemoglobin and hematocrit in treated tumor-bearing mice; assay type: in vivo; conditions: mice treated with 3.64±0.10 MBq GPAID IP; termination necropsy
Excerpt: (§6) Four-week-old NCr nu/nu mice, male (n=10) and female (n=10), received IP implant of 5×10^6 N1E cells. One week later, mice were randomly assigned via a lottery to either control or treatment group. Control mice were given IP injection of the vehicle. Mice in the therapy group received a bolus IP injection of 3.64±0.10 MBq GPAID per mouse (˜145 MBq/kg body weight [bw]). Triplicate aliquots of the injected dose (ID) were counted in a gamma counter. Syringes containing the dose and syringes after the injection were weighed on the analytical balance to determine ID. Whole body radioactivity was also measured immediately after each injection to confirm ID. Necropsy was performed at the termination of the experiment. Blood was collected via cardiac puncture. Aliquots were reserved for determination of hemoglobin (Hb; HemoCue, Ängelholm, Sweden) and hematocrit (Hct).

[20] = Biodistribution at necropsy 14 days after the dose; assay type: in vivo, mice; conditions: necropsy 14 days after the IP dose
Excerpt: as §6

[21] = monoprotonated cation at physiological pH; cited from earlier work
[22] = N1E cells, 24-hour incubation, average 29±3 kBq/ml
[23] = incubated with exponentially growing NB cell monolayers for 24 hours
[24] = 1 hour with GPAID, washed, additional 4 hours in nonradioactive medium

Molecule: N=C(N)NCCCCCC(=O)O[C@H]1C[C@H](n2cc([125I])c(=O)[nH]c2=O)O[C@@H]1CO [IDG, 5-[^125I]iodo-3′-O-(ε-guanidinohexanoyl)-2′-deoxyuridine]
- Half-life in human serum [1]: 2.3 ± 0.1 h and ~2.3 h
- Half-life in pig serum [2]: 3.6 ± 0.1 h

Molecule: N=C(N)NCc1cccc([131I])c1 [MIBG, metaiodobenzylguanidine]
- Inhibition of GPAID uptake [3]: 70%
- Inhibition of GPAID uptake [4]: 85%
- Colonies from cells exposed to nonradioactive MIBG alongside GPAID compared with GPAID alone ([5]; 50-μM MIBG, 25.8±0.7 kBq/ml GPAID): 3 ×
- Concentration at which uptake begins to saturate [6]: > 500 nM
- Concentration up to which uptake is linear [6]: ~100 nM

Molecule: N=C(N)NCc1cccc([125I])c1 [^125IMIBG]
- Recovery in the cytoplasmic fraction ([7]; N1E cells, 24-hour incubation): majority
- ^125I recovered in DNA (DNA pellet) [7, 22]: 0%
- ^125I retrieved in the soluble nuclear fraction [7, 22]: ~19%

Molecule: (R)-(−)-5-[^125I]Iodo-3′-O-[2-(ε-guanidinohexanoyl)-2-phenylacetyl]-2′-deoxyuridine [GPAID]
- Half-life in human serum [8]: 7.9 ± 0.7 h
- Half-life in pig serum [9]: 5.8 ± 2.1 h
- Stability in mouse serum [10]: not stable
- Stability in PBS [11]: stable
- Stability in cell culture in the absence of NB cells ([12]; 37° C.): stable
- Intact GPAID remaining in cell culture medium without cells ([12]; 24 hours at 37° C.): > 90%
- Total radioactivity in the form of either free ^125I or ^125I-uracil in medium ([13]; SK-N-SH cells cultured with GPAID for 24 hours at 37° C., 5% CO2 (FIG. 2D)): ~30%
- Intact GPAID in recovered media [13, 23]: ~42%
- ^125IUdR in recovered media [13, 23]: ~28%
- ^125I disintegrations accumulated in 24 hours ([14]; 1-hour exposure, all tested concentrations >0.015 MBq/ml): > 20 disintegrations per cell
- Dependence of cellular radioactivity on extracellular concentration ([14]; 1-hour treatment, entire tested range up to 200 kBq/ml (2.45×10^−9 M)): directly proportional to the extracellular concentration of GPAID
- Cellular uptake in BE cells compared with SK cells ([14]; 1 hour incubation, washed and processed immediately): nearly identical
- Total cellular radioactivity associated with DNA [15, 24]: > 95%
- Total recovered ^125I in DNA ([15]; after 1 hour with GPAID): 32%
- ^125I associated with DNA ([15]; at 24 hours): practically all
- Total cellular radioactivity associated with DNA [16, 24]: ~75%
- Total recovered ^125I in DNA ([16]; after 1 hour with GPAID): ~22%
- ^125I associated with DNA ([16]; at 24 hours): practically all
- ^125I recovered in DNA (DNA pellet) [7, 22]: > 99%
- ^125I activity in the nuclei bound to DNA ([7]; N1E-115 cells, 24-hour treatment, 29±3 kBq/ml (FIG. 3E)): ~100%
- BE cells that survived, retained reproductive integrity and formed colonies ([5]; GPAID extracellular concentration 25.8±0.7 kBq/ml): 32%
- Survival of NB cells treated with GPAID alone [17]: significant reduction in survival
- Average tumor weight at necropsy [18]: 0.88 ± 0.54 g
- HCt level [19]: within the normal range values
- Hb level [19]: within the normal range values
- Residual level in the adrenal glands [20]: 0.034±0.016 % ID/g
- Radioactivity retention in tissues ([20]; all tissues): only marginal radioactivity retention
- pKa [21]: ~12

From patent US12636386B2, “Compositions and methods for the treatment and imaging of cancer” (BOARD OF REGENTS OF THE UNIVERSITY OF NEBRASKA, priority 2021, dated 2026)
